Experiments:
Format in all cases: cell-based
[1] = test system: Aspergillus brasiliensis (DSM 1988/ATCC 16404); assay: microbe, parasite or virus in culture
Excerpt: (§1) The following bacteria and fungi strains and methods were used:
Aspergillus brasiliensis (2d) and (9d): MIC determined in accordance with a method of the European Committee on Antimicrobial Susceptibility Testing: EUCAST E.DEF 9.1, July 2008, “Method for the determination of broth dilution minimum inhibitory concentrations of antifungal agents for conidia forming moulds” available under www.eucast.

[2] = test system: Candida albicans (DSM 1386/ATCC 10231); assay: microbe, parasite or virus in culture; conditions: C. albicans
Excerpt: as §1
Candida albicans: MIC determined in accordance with the method described in EUCAST DEFINITIVE DOCUMENT EDef 7.2 “Method for the determination of broth dilution minimum inhibitory concentrations of antifungal agents for yeasts” available under www.eucast.org.

[3] = test system: Escherichia coli (DSM 1576/ATCC 8739); assay: microbe, parasite or virus in culture; conditions: E. coli
Excerpt: as §1
(§2) Pseudomonas aeruginosa and Escherichia coli: MIC determined in accordance with DIN EN ISO 20776-1: 2006.

[4] = test system: Pseudomonas aeruginosa (DSM 1128/ATCC 9027); assay: microbe, parasite or virus in culture; conditions: P. aeruginosa
Excerpt: as §1, §2

[5] = test system: Human corneal epithelial cells (HCE-T-cell line); assay: MTT toxicity test; conditions: compound 0.01%, 10 minutes treatment, in reference to KRB (100% viability) and Triton X (0% viability)
Description: The toxicity of the compounds of the invention was determined in accordance with a conventional MTT test. Human corneal epithelial cells (HCE-T-cell line) were cultivated in 5% Sasaki cell culture medium consisting of 250 ml DMEM (Dulbecco's Modified Eagle's Medium), 250 ml Ham's F12 medium, 27.17 ml fetale calf serum, 543.4 μl insulin 5 mg/ml, 1.086 ml EGF stock solution 5 μg/ml, 2.717 ml DMSO and 5.43 ml antibiotic/antimycotic solution. The cells were seeded into a 96 wells cell culture plate (18 000 cells/well) and grown in an incubator for about 24 h (37° C., 5% CO2). The medium was removed and the test compounds dissolved in KRB (Krebs Ringer buffer) were applied. 100 μl KRB were used as positive control whereas a 0.5% Triton X solution was used as negative control.
After incubation for 10 min. under light protection the test compounds were removed and the plates were rinsed once with 100 μl phosphate buffered saline (PBS without Mg and Ca) per well. After removal of PBS 100 μl MTT reagent (0.05%) were added into each well followed by incubation for 3h at 37° C. under light protection. Thereafter, the reagent was removed and replaced by 100 μl lysis solution. The dark blue dye was dissolved from the cells by shaking. After 30 min. the plate was evaluated by UV spectroscopy at 570 nm.

Structure (SMILES) | MIC ([1]; 48 h, A. bras. (2d)) | MIC ([1]; 216 h, A. bras. (9d)) | MIC [2] | MIC [3] | MIC [4] | Viability [5]
BrCCCC[n+]1ccc(-c2ccncc2)cc1 [Ex. 5] | 3.1 µg/mL | 3.1 to 50 µg/mL | 1.56 µg/mL | 6.3 µg/mL | 12.5 µg/mL | 83.8 ± 12.6%
c1cc(-c2cc[n+](CCCC[n+]3ccc(-c4ccncc4)cc3)cc2)ccn1 [Comp. ex. 3, reference compound] | 200 µg/mL | 200 to 400 µg/mL | 200 µg/mL | 200 µg/mL | > 400 µg/mL | 
CCCCCCCCCCCC[N+](C)(C)CCCC[n+]1ccc(-c2ccncc2)cc1 [Ex. 6.2] | 6.3 µg/mL | 6.3 µg/mL | < 3.12 µg/mL | 6.3 µg/mL | 12.5 µg/mL | 74.9 ± 12.0%
CC[N+](CC)(CC)C/C=C/C[n+]1ccc(CCCc2cc[n+](C/C=C/C[n+]3ccc(CCCc4cc[n+](C/C=C/C[N+](CC)(CC)CC)cc4)cc3)cc2)cc1 [Ex. 3] | 12.5 µg/mL | 12.5 to 25 µg/mL | < 3.1 µg/mL | 50 µg/mL | 25 µg/mL | 90.3 ± 7.0%

— patent US20180161364A1 (priority 2015, published 2018)
